Assays:
Assay type in all cases: cell-based, human
[1] = system: MCF-7 mammary carcinoma (M cells); assay: PIT method in vitro cell growth inhibition, MCF-7; settings: amount which inhibits 50% of the cell growth; MCF-7 cells
Experimental: (§1) The tests were carried out according to the method of R.van Lambalgen en P. Lelieveld, The PIT method: an automated in vitro technique for drug toxicity testing. Invest.
(§2) The ID50 values in ng/ml for the above compounds were determined according to the above mentioned procedure of van Lambalgen and Lelieveld.

[2] = system: A 204 rhabdomyosarcoma (A cells); assay: PIT method in vitro cell growth inhibition, A 204; settings: amount which inhibits 50% of the cell growth; A 204 cells
Experimental: as §1, §2

[3] = system: WiDr colon tumor cells (W cells); assay: PIT method in vitro cell growth inhibition, WiDr; settings: amount which inhibits 50% of the cell growth
Experimental: as §1, §2

[4] = system: IgR-37 melanoma (Z cells); assay: PIT method in vitro cell growth inhibition, IgR-37; settings: amount which inhibits 50% of the cell growth; IgR-37 cells
Experimental: as §1, §2

[5] = system: T24 bladder carcinoma (T cells); assay: PIT method in vitro cell growth inhibition, T24; settings: amount which inhibits 50% of the cell growth
Experimental: as §1, §2

Q: N.N.[Cl][Pt][Cl] [cis platium, cis-(NH3)2PtCl2] was tested. Which “ID50 values in ng/ml MCF-7” value [1] did it give?
A: 850 ng/mL

Q: What about the “ID50 values in ng/ml A 204” value [2] of the same compound?
A: 871 ng/mL

Q: And the “ID50 values in ng/ml WiDr” value [3]?
A: 624 ng/mL

Q: What about the “ID50 values in ng/ml IgR-37” value [4] of the same compound?
A: 878 ng/mL

Q: What about the “ID50 values in ng/ml T24” value [5] of the same compound?
A: 268 ng/mL

— patent EP0472783A1, “Anti-tumor compositions and compounds” (PHARMACHEMIE B.V., priority 1990, dated 1992)
